Reference: patent US11319289B2, “5-hydroxy pyridine-based compound for use as P2X1 and P2X3 receptor antagonist and pharmaceutical composition comprising same” (GWANGJU INSTITUTE OF SCIENCE AND TECHNOLOGY, priority 2017, dated 2022)

Tests used:
[1] = test system: CIPN rats (mechanical allodynia); assay: Antiallodynic effect (von Frey) in chemotherapy-induced peripheral neuropathy (CIPN) rats; assay type: in vivo; conditions: Rattus norvegicus, intravenous administration
Procedure: 3-1. Evaluation of In Vivo Efficacy
The antiallodynic effects (mechanical allodynia) were evaluated using rats according to a previously reported protocol. In order to evaluate the withdrawal threshold, rats (naive, SNL and CIPN) were placed on a plastic mesh floor of individual plastic cages. The rats were allowed to acclimate to the environment for 30 minutes and examined after intrathecal or intravenous administration to the caudal vein. The control group received the same volume of vehicle (intrathecal administration of saline or DMSO, intravenous administration of DMSO:PEG:PBS=1:6:3 v/v %) as the experimental groups. Evaluation of the mechanical withdrawal threshold was measured in responses to the application of calibrated von Frey filaments (Stoelting, Wood Dale, Ill., USA) to the hind paw of the rats through the holes on the mesh floor underneath the cage using the ‘up and down method’. A series of eight von Frey filaments (0.4, 0.7, 1.2, 2.0, 3.6, 5.5, 8.5, and 15 g) was applied perpendicular to the sole of the hind paw for 5 seconds while the head was bent. Active withdrawal or flinching of the paw was considered as a positive reaction. The absence of response in the rats, when a pressure was applied to 15 g von Frey filament, was used as a cut-off value. Only rats with definite allodynia (i.e., mechanical withdrawal threshold: less than 4 g after SNL or less than 5 g after CIPN) were tested. The rats after termination of the experiments were euthanized through an overdose of sevoflurane. The withdrawal threshold data for the von Frey filament test was calculated as % MPE (maximum possible effect) based on the following Calculation Equation: % MPE=[(Post-drug threshold−Post-injured baseline threshold)/(Cutoff threshold−post-injured baseline threshold)×100]. Dose-response data were analyzed using Scheffe's post hoc test and one-way analysis of variance (ANOVA).

rP2X2/3 receptors = biological target: T1, rP2X2/3 receptors (Rattus norvegicus, UniProt P49653+P49654); assay: Antagonistic effect for heterologous rP2X2/3 receptors; assay type: cell-based; conditions: FIG. 2
T1 sequence (P49653 1-472): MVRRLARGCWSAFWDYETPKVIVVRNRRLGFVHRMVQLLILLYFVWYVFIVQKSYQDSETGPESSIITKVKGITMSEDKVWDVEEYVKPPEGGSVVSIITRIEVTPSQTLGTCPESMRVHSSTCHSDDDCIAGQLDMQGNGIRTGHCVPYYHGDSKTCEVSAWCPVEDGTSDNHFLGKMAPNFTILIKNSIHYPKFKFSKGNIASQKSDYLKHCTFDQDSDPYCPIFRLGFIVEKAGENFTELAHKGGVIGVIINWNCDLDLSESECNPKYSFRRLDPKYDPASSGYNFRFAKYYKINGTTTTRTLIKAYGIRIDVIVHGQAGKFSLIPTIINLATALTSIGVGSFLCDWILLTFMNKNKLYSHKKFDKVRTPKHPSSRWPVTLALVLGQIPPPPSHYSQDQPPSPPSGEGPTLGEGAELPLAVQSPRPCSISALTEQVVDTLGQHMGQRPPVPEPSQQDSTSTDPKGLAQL
T1 sequence (P49654 1-397): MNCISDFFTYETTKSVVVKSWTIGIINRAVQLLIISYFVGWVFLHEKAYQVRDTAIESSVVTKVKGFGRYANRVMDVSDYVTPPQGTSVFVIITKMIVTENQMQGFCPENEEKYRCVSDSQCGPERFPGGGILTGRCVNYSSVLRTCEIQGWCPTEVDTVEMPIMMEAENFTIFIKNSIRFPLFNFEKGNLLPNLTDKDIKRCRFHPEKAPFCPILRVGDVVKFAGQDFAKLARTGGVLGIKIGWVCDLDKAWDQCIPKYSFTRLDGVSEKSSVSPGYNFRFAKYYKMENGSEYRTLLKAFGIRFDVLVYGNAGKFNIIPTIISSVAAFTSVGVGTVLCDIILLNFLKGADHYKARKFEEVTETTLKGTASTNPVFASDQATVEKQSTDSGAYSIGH
Source text: FIGS. 2a to 2c show the antagonistic activity of Compound 29 of the present invention for P2X3 and P2X2/3 receptors (2a: hP2X3R, 2b: […]).

CYP450 2C9 = biological target: T2, CYP450 2C9 (Homo sapiens, UniProt P11712); assay: CYP inhibition assay (Vivid fluorometric), 2C9; assay type: biochemical; conditions: 1 μM in Table 5
T2 construct: purchased Invitrogen
Procedure: (§1) CYP450 (1A2, 2C9, 3A4) enzyme assay was performed by a fluorometric assay using a Vivid® CYP450 screening kit (Invitrogen, USA, CA) in a 96-well black plate according to manufacturer's instructions with some modifications. The assay was performed at room temperature, and the final assay volume was 100 μL. […]
(§2) A master pre-mixture (enzyme (0.5 nmol recombinant human CYP450 enzyme)/NADP regeneration solution (333 mM glucose-6-phosphate dissolved, 30 U/mL glucose-6-phosphate dehydrogenase in 100 mM KH2PO4 solution at pH 8.0)) was prepared as a CYP450 reaction buffer (200 mM KH2PO4, pH 8.0). The master pre-mixture was added to each well of the 96 well plate, followed by the vehicle DMSO (control) and test compounds, and the mixture was preincubated for 10 minutes in the plate for background reading. Subsequently, the enzyme reaction was immediately initiated through the addition of CYP450 substrate/NADP^+ mixture. After incubation for 40 minutes, the fluorescence of the product was measured with a CHAMELEON™ multi-technology plate reader (2C9, 3A4: excitation wavelength of 530 nm and emission wavelength of 590 nm, 1A2: excitation wavelength of 415 nm and emission wavelength of 460 nm). The effect of the test compounds on CYP450 (1A2, 2C9, 3A4) was expressed as the percentage of enzyme activity.

CYP1A2 = biological target: T3, CYP1A2 (Homo sapiens, UniProt P05177); assay: CYP inhibition assay (Vivid fluorometric), 1A2; assay type: biochemical; conditions: human, recombinant human CYP1A2, pH 8; 1 μM in Table 5; read-out: CYP450 inhibition, 1A2 isozyme
T3 construct: purchased Invitrogen
T3 sequence (P05177 1-516): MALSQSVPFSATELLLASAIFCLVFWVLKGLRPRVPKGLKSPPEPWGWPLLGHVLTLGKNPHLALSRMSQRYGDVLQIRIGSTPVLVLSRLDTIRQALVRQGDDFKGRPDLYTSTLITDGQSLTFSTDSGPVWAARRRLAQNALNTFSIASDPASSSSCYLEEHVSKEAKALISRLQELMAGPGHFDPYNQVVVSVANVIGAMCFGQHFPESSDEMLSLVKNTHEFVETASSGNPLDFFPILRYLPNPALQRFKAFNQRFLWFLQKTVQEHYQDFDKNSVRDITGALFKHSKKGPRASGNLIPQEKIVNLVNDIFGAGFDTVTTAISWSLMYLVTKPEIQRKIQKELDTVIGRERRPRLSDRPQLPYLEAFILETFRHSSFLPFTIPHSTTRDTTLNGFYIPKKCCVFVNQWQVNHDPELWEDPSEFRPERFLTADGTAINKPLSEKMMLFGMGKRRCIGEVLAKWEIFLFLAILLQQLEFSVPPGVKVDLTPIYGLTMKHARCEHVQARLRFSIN
Procedure: as §1, §2

CYP450 1A2 = biological target: T4, CYP450 1A2 (Homo sapiens, UniProt P05177); assay: CYP inhibition assay (Vivid fluorometric), 1A2; assay type: biochemical; conditions: 1 μM in Table 5
T4 construct: purchased Invitrogen
T4 sequence (P05177 1-516): T3 sequence (P05177 1-516)
Procedure: as §1, §2

T2 sequence (P11712 whole entry): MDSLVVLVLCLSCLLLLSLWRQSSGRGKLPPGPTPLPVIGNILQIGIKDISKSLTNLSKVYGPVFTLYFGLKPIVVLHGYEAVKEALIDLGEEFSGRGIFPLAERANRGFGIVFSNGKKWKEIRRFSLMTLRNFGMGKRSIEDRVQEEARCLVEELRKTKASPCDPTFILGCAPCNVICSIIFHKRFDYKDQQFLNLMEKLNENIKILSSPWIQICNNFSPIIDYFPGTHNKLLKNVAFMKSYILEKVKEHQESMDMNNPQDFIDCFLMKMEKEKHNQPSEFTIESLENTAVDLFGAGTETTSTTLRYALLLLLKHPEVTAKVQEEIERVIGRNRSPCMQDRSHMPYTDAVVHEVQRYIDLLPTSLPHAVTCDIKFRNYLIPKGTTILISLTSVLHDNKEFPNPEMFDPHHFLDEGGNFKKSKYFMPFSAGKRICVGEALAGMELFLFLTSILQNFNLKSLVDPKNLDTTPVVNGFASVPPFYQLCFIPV

Structure (SMILES) | ED50 [1] [mg/kg] | antagonistic effect for heterologous rP2X2/3 receptors (rP2X2/3 receptors) | CYP450 inhibition, 2C9 isozyme (CYP450 2C9) | inhibition at 40 min, 1 µM (CYP1A2) [%] | CYP450 inhibition, 1A2 isozyme (CYP450 1A2)
CCCc1nc(Cc2cccc(Oc3ccccc3)c2)c(C)c(C(=O)OC)c1O [Compound 28, Methyl 3-hydroxy-5-methyl-6-(3-phenoxybenzyl)-2-propylisonicotinate] | 2.93 |  |  |  | 
CCCc1nc(Cc2cccc(Oc3ccccc3)c2)c(C)c(C(=O)O)c1O [Compound 29, 3-Hydroxy-5-methyl-6-(3-phenoxybenzyl)-2-propylisonicotinic acid] |  | showed an antagonistic effect | weak inhibitory effect | 36 ± 3 | weak inhibitory effect
